Experimental data as given in patent US7067273B2, “Peptide substrates of a proteolytic ADAM33 polypeptide and assays using the same” (Schering Corporation, priority 2002, dated 2006).

What was measured:
[1] = biological target: T1, proteolytic ADAM33 polypeptide (Homo sapiens, UniProt Q9BZ11); experiment: FRET assay for inhibition of the proteolytic activity of a proteolytic ADAM33 polypeptide; assay type: biochemical
T1 construct: The presence of imidazole facilitated the separation of the prodomain from the catalytic domain; made in house; host or cells: Drosophila melanogaster S2 cells (pMT/Bip/V5-His-C, secreted)
T1 sequence (Q9BZ11 204-409): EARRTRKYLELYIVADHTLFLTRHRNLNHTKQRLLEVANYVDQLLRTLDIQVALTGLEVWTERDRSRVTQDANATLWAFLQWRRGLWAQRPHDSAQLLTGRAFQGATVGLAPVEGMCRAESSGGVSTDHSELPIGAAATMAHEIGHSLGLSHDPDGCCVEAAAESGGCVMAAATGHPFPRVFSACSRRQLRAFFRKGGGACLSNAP
Protocol: A FRET assay may also be used to determine the cleavage of a compound by a proteolytic ADAM33 polypeptide. At room temperature, in a total reaction volume of 100 μL per well in a 96 well plate, add 50 μL of 2× Assay Buffer (40 mM HEPES, pH 7.5, 1.0 M NaCl; 1× Assay Buffer being 20 mM HEPES, pH 7.5, 0.5 M NaCl), followed by 25 μL of 100 μM substrate, e.g., SEQ ID NO: 14 (K(Dabcyl)YEVAHQKLAE(Edans)K-OH), and lastly 25 μL of 40 nM a proteolytic ADAM33 polypeptide in Enzyme Dilution Buffer 40 mM HEPES, pH 7.5. The reaction starts after the enzyme is added and is assayed at room temperature for 15–20 minutes by reading the relative fluorescence unit.
For High throughput screening, the FRET assay is performed similarly to that stated above, but with Assay Buffer that is also composed of 0.2 mg/ml BSA (1× Assay Buffer being 20 mM HEPES, pH 7.5, 0.5 M NaCl, 0.2 mg/ml BSA). In addition, the substrate used has a fluorescent donor and an acceptor at either end of the peptide, e.g., SEQ ID NO: 18 ((Cy5Q)WEVAH*QKLAC(Cy3B)K). Lastly, the reaction is incubated at room temperature for 3 hours and then stopped by adding 10 μL EDTA (11 mM). To measure the proteolytic activity of the proteolytic ADAM33 polypeptide on the substrate, the endpoint (relative fluorescence unit) is read using the appropriate excitation and emission wavelengths (e.g., for Cy5Q and Cy3B, 540 nm and 580 nm, respectively). […]

[2] = biological target: T1, proteolytic ADAM33 polypeptide; experiment: Proteolytic activity assay: cleavage of peptide substrates by a proteolytic ADAM33 polypeptide (HPLC); assay type: biochemical; conditions: fold versus SEQ ID NO: 8
From the text: The proteolytic activity assay consists of a substrate, preferably at a micromolar to submicromolar concentration, and a proteolytic ADAM33 polypeptide, preferably at a submicromolar concentration, in a benign buffered solution at pH 7–9, more preferably around pH 7.5–8.0. This assay may be set-up to monitor proteolytic activity of a proteolytic ADAM33 polypeptide continuously over a time span of minutes to hours in a 96-well or 384-well format. Alternatively, this assay may be set up to allow an elapse of time span of minutes to hours before the proteolytic activity is quenched and analyzed following acidification to under pH 4 or addition of an excess amount of zinc chelators (e.g., EDTA).
For example, an ADAM33 substrate derived from amyloid percursor protein to assay the proteolytic activity of a proteolytic ADAM33 polypeptide. The cleavage site in the above-mentioned substrate is indicated by a hyphen (i.e., the cleavage site is the scissile bond being between the second histidine and the adjacent glutamine). One particular set of assay conditions contains 25 nM of the proteolytic ADAM33 polypeptide and 25 μM substrate. […] The rate of reaction is measured over a defined time period (e.g., for 1 hour at room temperature) and then stopped. Product formation can be quantified at 214 nm by HPLC using a reverse phase column to separate the substrate from the products. […]

Molecule | inhibition of the proteolytic activity of a proteolytic ADAM33 polypeptide (in words) [1] | cleavage rate relative to the 10-mer truncated form of APP28 (SEQ ID NO: 8) [2]
CNC(=O)[C@@H](NC(=O)[C@H](CC(C)C)[C@H](O)C(=O)NO)C(C)(C)C [marimastat] | identified as an inhibitor | 
Ac-Tyr-Glu-Val-Ala-His-Gln-Lys-Leu-Val-Phe-NH2 (Ac-YEVAHQKLVF-NH2) [SEQ ID NO: 13, peptide substrate, code P5P5′, Ac-YEVAH*QKLVF-NH2] |  | seventeen times greater
